Key:
Integrin αvβ3 = Integrin αvβ3 (Homo sapiens, UniProt P05106+P06756); assay: Surface plasmon resonance (SPR) 'inverse' integrin αvβ3 assay; type: binding
Procedure: Compound 17 was immobilized onto a CM5 chip (Supplier: Biacore. CM5 is a SPR chip with a carboxymethylated dextran covalently attached to a gold surface) via amine coupling. Integrin αvβ3 samples at 25 nM concentration, premixed with a wide range of concentrations of RGD test compound (0˜1000 nm), were flowed through the CM5 chip at 14° C. The interactions between the flowing integrin αvβ3 sample and the surface of the chip were recorded by Biacore sensorgram signals. Flow cell #1 served as blank control and the flow cell #2 were coated with compound 17. After subtraction the blank signal of flow cell #1 from the signal of flow cell #2, the resulting sensorgram signals from each cycle were converted into percentage values. Then the Kd and IC50 values for each RGD compounds were calculated.

[1] = biological target: T1, Integrin αvβ3 expressing U87MG cells (Homo sapiens, UniProt P05106+P06756); assay: Cell-based integrin binding competition assay; conditions: competition with 2 μM fluorescence labeled compound 18, 2 hrs
T1 construct: Integrin αvβ3 expressing U87MG cells; endogenous in cells; host or cells: U87MG
Procedure: Integrin αvβ3 expressing U87MG cells were incubated with a series of concentration of RGD compounds (0-32 μM) in the presence of 2 μM of green fluorescence labeled compound 18 for 2 hrs. After incubation, cells were washed three times to eliminate unbound RGD compounds. Fluorescence readings (RLU) were then taken (excitation at 491 nm, emission at 518 nm, cutoff 515 nm).
The results are consistent with that of surface plasmon resonance assay.

integrin = integrin (Homo sapiens, UniProt P05106+P06756); conditions: cited from earlier work
[2] = cited from earlier work
[3] = test system: integrin-positive M21 melanoma xenograft; conditions: integrin-positive M21 melanoma xenograft model; cited from earlier work
[4] = test system: A431 human squamous cell carcinoma model; conditions: tumor cells integrin negative; cited from earlier work
[5] = test system: tumor xenograft of either U87MG human glioblastoma or A431 human squamous cell carcinoma; conditions: mouse, in vivo
Procedure: PET Studies: In vivo microPET imaging of a tumor-bearing mouse is performed on an anesthetized mouse bearing tumor xenograft of either U87MG human glioblastoma or A431 human squamous cell carcinoma after administration of cyclic peptidomimetic. […] See e.g. FIG. 3-6.

[6] = SPR, compared with RGDfK, FIG. 1

SMILES: N=C(N)NCCC[C@@H]1NC(=O)[C@H](CCCCN)n2cc(nn2)[C@H](Cc2ccccc2)NC(=O)[C@H](CC(=O)O)NC(=O)CNC1=O [Compound 1]
- binding affinity to integrin αvβ3 (Integrin αvβ3; 'inverse' SPR, compound 17 immobilized on CM5 chip, integrin αvβ3 25 nM, 14° C.): surprisingly high binding affinity
- IC50 (Integrin αvβ3; [6]): very close to those of RGDfK
- Kd (Integrin αvβ3; [6]): very close to those of RGDfK
- potency [1]: very similar in potency

SMILES: CC([18F])C(=O)NC[C@H]1OC(C(=O)NCCCC[C@@H]2NC(=O)C(Cc3ccccc3)NC(=O)[C@H](CC(=O)O)NC(=O)CNC(=O)[C@H](CCCNC(=N)N)NC2=O)[C@@H](O)C(O)C1O (stereo partly drawn) [[^18F]galacto-RGD]
- integrin binding affinity (integrin): relatively low integrin binding affinity
- activity accumulation in organs ([2]; both preclinical models and human studies): prominent activity accumulation in the liver, kidneys, spleen, and intestines
- safety of administration ([2]; healthy volunteers and a limited number of cancer patients): could be safely administered to patients
- pharmacokinetic behavior ([2]; human, in vivo): unfavorable pharmacokinetic behavior
- tumor standard uptake values ([2]; human, in vivo): modest tumor standard uptake values
- delineation of integrin-positive lesions ([2]; initial clinical trials): able to delineate certain lesions that were integrin-positive with reasonable contrast
- tumor uptake [3]: integrin αvβ3-specific tumor uptake
- visualization of integrin αvβ3 expression from tumor vasculature [4]: sensitive enough for visualization of integrin αvβ3 expression

SMILES: N=C(N)NCCC[C@@H]1NC(=O)[C@H](CCCCNC(=O)CCOCCOCCOCCOCCNC(=O)Cn2cc(CCCF)nn2)n2cc(nn2)[C@H](Cc2ccccc2)NC(=O)[C@H](CC(=O)O)NC(=O)CNC1=O [Compound 2]
- renal clearance and liver uptake [5]: favorable renal clearance and very little liver uptake
- tumor uptake and retention [5]: good tumor uptake and retention
- wash-out rate from muscle and other healthy tissues [5]: fast wash-out rate

SMILES: N=C(N)NCCC[C@@H]1NC(=O)[C@H](CCCCNC(=O)CCN(CCC(=O)NCCCC[C@H]2C(=O)N[C@@H](CCCNC(=N)N)C(=O)NCC(=O)N[C@@H](CC(=O)O)C(=O)N[C@@H](Cc3ccccc3)c3cn2nn3)C(=O)CCOCCOCCOCCOCCNC(=O)Cn2cc(CCCF)nn2)n2cc(nn2)[C@H](Cc2ccccc2)NC(=O)[C@H](CC(=O)O)NC(=O)CNC1=O [Compound 3]
- renal clearance and liver uptake [5]: favorable renal clearance and very little liver uptake
- tumor uptake and retention [5]: good tumor uptake and retention
- wash-out rate from muscle and other healthy tissues [5]: fast wash-out rate

Source: US20080213175A1, “Click chemistry-derived cyclic peptidomimetics as integrin markers” (priority 2006, published 2008)
